Structures can show the parent of a compound that is named as a salt.
How the values were obtained:
Format in all cases: in vivo
systolic blood pressure = assay: Antihypertensive activity, reduction in systolic blood pressure, single oral medication, unanesthetized spontaneous hypertensive rat; conditions: P.O.; for Antihypertensive activity SH Rat AHD40 (single oral dose required to induce a 40 mm. average reduction in systolic blood pressure): unanesthetized SH rat
Method: Antihypertensive activity was determined on the basis of the observed reduction in systolic blood pressure measured according to the method of H. Kersten et al., J. Lab. and Clin. Med. 32, 1090 (1947) following a single oral medication in the unanesthetized spontaneous hypertensive rat described by Okamato et al., Japan Circulation J. 27, 282 (1963).
^a AHD40 = single oral dose required to induce a 40 mm. average

β-adrenergic = β-adrenergic blocking activity, inhibition of isoproterenol-elicited heart rate increase in pentobarbitalized dog; conditions: i.v.; for Dog β-blockade AED50 (approximate intravenous dose for 50% inhibition of isoproterenol-elicited heart rate increase): pentobarbitalized dog
Method: The β-adrenergic blocking activity was determined in the pentobarbitalized dog as judged by the ability of the test compound to inhibit the elevation in heart rate elicited by a 0.5 mcg./kg. i.v. injection of isoproterenol.
^e AED50 = approximate intravenous dose required to cause 50%

blood pressure = assay: Antihypertensive activity, sustained lowering of blood pressure, repeated oral medication, unanesthetized trained renal hypertensive dog; conditions: administered once per day
From the text: Antihypertensive activity was also judged on the basis of sustained reduction of blood pressure observed in the unanesthetized trained renal hypertensive dog following repeated oral medication according to the procedure described by Lape et al., Arch.
^b MED10 = minimum repeated oral daily dose required to effect a

| Structure (SMILES) | Antihypertensive activity SH Rat AHD40 (single oral dose required to induce a 40 mm. average reduction in systolic blood pressure) (systolic blood pressure) [mg/kg] | Dog β-blockade AED50 (approximate intravenous dose for 50% inhibition of isoproterenol-elicited heart rate increase) (β-adrenergic) | Actual reduction in blood pressure observed at the indicated dose (systolic blood pressure; 50 mg./kg.) [mm. Hg] | other results |
| --- | --- | --- | --- | --- |
| CC(CCc1ccc(O)cc1)NCC(O)c1ccc(O)c([S+](C)[O-])c1 (single isomer, unassigned) [Example 23C, 4-hydroxy-α-<{[4-(4-hydroxyphenyl)-1-methylpropyl]amino}methyl>-3-(methylsulfinyl)benzenemethanol cyclohexylsulfamate salt] | 40.0 | < 0.025 mg/kg |  | Actual percentage inhibition of heart rate increase above control level observed at the indicated dose (β-adrenergic; 0.025 mg./kg.): 80% |
| COc1ccc(CCC(C)NCCc2ccc(O)c([S+](C)[O-])c2)cc1 (single isomer, unassigned) [Example 29C, 4-<2-{[3-(4-methoxyphenyl)-1-methylpropyl]amino}ethyl>-2-(methylsulfinyl)phenol hydrochloride] | < 20 | > 1.0 mg/kg |  | Renal Hypertensive Dog MED10 (minimum repeated oral daily dose for sustained lowering of blood pressure of 10% or greater) (blood pressure): > 40 mg/kg; Actual reduction in blood pressure observed at the indicated dose (systolic blood pressure; 20 mg./kg.): -54 mm. Hg; Actual percentage inhibition of heart rate increase above control level observed at the indicated dose (β-adrenergic; 1.0 mg./kg.): 43% |
| CCOCCOc1ccc(C(O)CNC(C)CCc2ccc(OC)cc2)cc1[S+](C)[O-] (stereo not drawn) [Example 32E, 4-[2-(ethoxy)ethoxy]-α-<{[3-(4-methoxyphenyl)-1-methylpropyl]amino}methyl>-3-(methylsulfinyl)benzenemethanol hydrochloride] | > 150 |  |  |  |
| CC(CCc1ccccc1)NCCc1ccc(O)c([S+](C)[O-])c1 (stereo not drawn) [Example 33C, 4-<2-{[1-methyl-3-phenylpropyl]amino}ethyl>-2-(methylsulfinyl)phenolhydrochloride] | > 50 | 1.0 mg/kg | -28 |  |
| CC(CCc1ccc2c(c1)OCO2)NCC(O)c1ccc(O)c([S+](C)[O-])c1 (stereo not drawn) [Example 31C, 4-hydroxy-α-<{[3-(3,4-methylenedioxyphenyl)-1-methylpropyl]amino}methyl>-3-(methylsulfinyl)benzenemethanol hydrochloride] | < 50 | < 0.025 mg/kg | -54 | Actual percentage inhibition of heart rate increase above control level observed at the indicated dose (β-adrenergic; 0.025 mg./kg.): 60% |
| C[S+]([O-])c1cc(CCNC(C)(C)CCc2ccccc2)ccc1O.Cl (stereo not drawn) [Example 35C, 4-{2-[(1,1-dimethyl-3-phenylpropyl)amino]ethyl}-2-(methylsulfinyl)phenol hydrochloride] | > 50 | 0.6 mg/kg | -20 |  |
| COc1ccc(CCC(C)NCCc2ccc(O)c([S+](C)[O-])c2)cc1 (stereo not drawn) [Example 37C, 4-<2-{[3-(4-methoxyphenyl)-1-methylpropyl]amino}ethyl>-2-(methylsulfinyl)phenol hydrochloride] | > 150 |  |  | Actual reduction in blood pressure observed at the indicated dose (systolic blood pressure; 150 mg./kg., hydrochloride): -21 mm. Hg |
| COc1ccc(CCC(C)NCC(O)c2ccc(OC(=O)c3ccccc3)c([S+](C)[O-])c2)cc1 (stereo not drawn) [Example 8, 4-hydroxy-α-<{[3-(4-methoxyphenyl)-1-methylpropyl]amino}methyl>-3-(methylsulfinyl)benzenemethanol 4-benzoate hemi-sulfate] | 9 |  |  |  |
| COc1ccc(CCC(C)NCC(=O)c2ccc(OC(=O)c3ccccc3)c([S+](C)[O-])c2)cc1Br (stereo not drawn) [Example 7E, 4'-hydroxy-2-{[3-(3-bromo-4-methoxyphenyl)-1-methylpropyl]-amino}-3'-(methylsulfinyl)acetophenone 4'-benzoate hydrochloride] | 30 | > 1.0 mg/kg |  | Renal Hypertensive Dog MED10 (minimum repeated oral daily dose for sustained lowering of blood pressure of 10% or greater) (blood pressure): ~.10 mg/kg; Actual percentage inhibition of heart rate increase above control level observed at the indicated dose (β-adrenergic; 1.0 mg./kg.): 12% |
| COc1ccc(CCC(C)NCC(=O)c2ccc(OC(=O)c3ccccc3)c([S+](C)[O-])c2)cc1 (stereo not drawn) [Example 25, 4'-hydroxy-2-{[3-(4-methoxyphenyl)-1-methylpropyl]amino}-3'-(methylsulfinyl)acetophenone 4'-benzoate hydrochloride] | > 50 |  | -12 |  |
| COc1ccc(CC(C)NC(C)C(O)c2ccc(O)c([S+](C)[O-])c2)cc1 (stereo not drawn) [Example 15F, 4-hydroxy-α-<{1-[2-(4-methoxyphenyl)-1-methylethyl]amino}ethyl>-3-(methylsulfinyl)benzenemethanol acetate salt] | > 20.0 |  |  | Actual reduction in blood pressure observed at the indicated dose (systolic blood pressure; 20 mg./kg.): -25 mm. Hg |
| COc1ccc(CCC(C)NCC(O)c2ccc(O)c([S+](C)[O-])c2)cc1 (stereo not drawn) [Example 24C, hydrochloride] |  |  | -12 | Antihypertensive activity SH Rat AHD40 (single oral dose required to induce a 40 mm. average reduction in systolic blood pressure) (systolic blood pressure; hydrochloride): > 50 mg/kg; Dog β-blockade AED50 (approximate intravenous dose for 50% inhibition of isoproterenol-elicited heart rate increase) (β-adrenergic; hydrochloride): ca. 0.50 mg./kg. |
| COc1ccc(CCCC(C)(C)NCC(O)c2ccc(O)c([S+](C)[O-])c2)cc1 (stereo not drawn) [Example 22D, 4-hydroxy-α-<{[4-(4-methoxyphenyl)-1,1-dimethylbutyl]amino}methyl>-3-(methylsulfinyl)benzenemethanol] | > 50.0 |  | -12 |  |
| COc1ccc(CCNCC(O)c2ccc(O)c([S+](C)[O-])c2)cc1OC (stereo not drawn) [Example 27C, α-<{[2-(3,4-dimethoxyphenyl)ethyl]amino}-methyl>-4-hydroxy-3-(methylsulfinyl)benzenemethanol hydrochloride] | > 50 | ca. 0.10 mg./kg. | -26 |  |
| COc1ccc(CCC(C)NCCc2ccc(O)c([S+](C)[O-])c2)cc1 (stereo not drawn) [Example 36C, 4-<2-{[3-(4-methoxyphenyl)-1-methylpropyl]amino}ethyl>-2-(methylsulfinyl)phenol hydrochloride] | > 150 |  |  | Actual reduction in blood pressure observed at the indicated dose (systolic blood pressure; 150 mg./kg., hydrochloride): -28 mm. Hg |
| COc1cc(CCNCC(O)c2ccc(O)c([S+](C)[O-])c2)cc(OC)c1OC (stereo not drawn) [Example 28C, 4-hydroxy-3-(methylsulfinyl)-α-<{[2-(3,4,5-trimethoxyphenyl)ethyl]-amino}methyl>benzenemethanol hydrochloride] | > 50 |  | -15 |  |
